Glutamate EC50 in presence of 30 uM compound (lower = stronger potentiation) data for seven compounds are collected here from PubChem BioAssay AID2179 (Vanderbilt High Throughput Screening Facility, 2009).

The source made the active and inactive calls. How the calls were made is not given here.

The assay deals with Metabotropic glutamate receptor 4 (Rattus norvegicus) (UniProt P31423). Briefly: PubChem AID 2179. Particulars: HEK/GIRK rat mGluR4, thallium flux, glutamate CRC fold-shift.
Metabotropic glutamate receptor 4 (Rattus norvegicus), sequence (P31423 whole entry, looked up): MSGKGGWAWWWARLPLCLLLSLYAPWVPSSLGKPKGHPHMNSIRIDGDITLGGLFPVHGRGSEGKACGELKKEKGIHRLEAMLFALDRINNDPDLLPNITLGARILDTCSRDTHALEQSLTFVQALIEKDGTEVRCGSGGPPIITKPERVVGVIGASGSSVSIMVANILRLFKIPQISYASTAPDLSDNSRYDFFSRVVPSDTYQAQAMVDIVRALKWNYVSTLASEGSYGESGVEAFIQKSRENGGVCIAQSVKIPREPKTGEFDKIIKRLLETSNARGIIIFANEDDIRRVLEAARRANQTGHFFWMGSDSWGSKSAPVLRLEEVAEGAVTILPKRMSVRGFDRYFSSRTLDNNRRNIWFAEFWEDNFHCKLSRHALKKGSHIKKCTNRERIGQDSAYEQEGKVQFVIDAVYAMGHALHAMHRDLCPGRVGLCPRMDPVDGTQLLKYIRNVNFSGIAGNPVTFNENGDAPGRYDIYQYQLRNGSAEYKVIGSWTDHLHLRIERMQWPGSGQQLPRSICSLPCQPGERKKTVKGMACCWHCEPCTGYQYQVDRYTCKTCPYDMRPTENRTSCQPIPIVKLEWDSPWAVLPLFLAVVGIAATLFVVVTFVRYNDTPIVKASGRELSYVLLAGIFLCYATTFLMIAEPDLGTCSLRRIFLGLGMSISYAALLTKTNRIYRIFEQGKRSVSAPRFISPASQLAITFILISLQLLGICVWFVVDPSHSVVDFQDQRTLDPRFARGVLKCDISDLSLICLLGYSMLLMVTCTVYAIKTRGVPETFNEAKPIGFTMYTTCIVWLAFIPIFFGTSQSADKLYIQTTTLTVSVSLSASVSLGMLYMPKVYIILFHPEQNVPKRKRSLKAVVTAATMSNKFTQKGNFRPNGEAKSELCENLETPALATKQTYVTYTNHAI
In the case of `O=C(Nc1cccc(Cl)c1)c1ccccn1`, the glutamate EC50 in presence of 30 uM compound (lower = stronger potentiation) is 0.368 µM.

Consider `COc1ccc(NC(=O)c2ccccn2)cc1Cl`, for which the glutamate EC50 in presence of 30 uM compound (lower = stronger potentiation) was 1.18 µM.

With `COc1cc(NC(=O)c2ccccn2)ccc1Cl`, the glutamate EC50 in presence of 30 uM compound (lower = stronger potentiation) was 0.307 µM.

Turning to `O=C(Nc1ccc(F)c(C(F)(F)F)c1)c1ccccn1`, the glutamate EC50 in presence of 30 uM compound (lower = stronger potentiation) is 4.01 µM (inactive).

Turning to `O=C(Nc1ccc(Cl)c(C(F)(F)F)c1)c1ccccn1`, the glutamate EC50 in presence of 30 uM compound (lower = stronger potentiation) is 5.82 µM (inactive).

On to `COc1cc(NC(=O)c2ccccn2)ccc1F`, for which the glutamate EC50 in presence of 30 uM compound (lower = stronger potentiation) was 0.409 µM.

Take `COc1cc(NC(=O)c2ccccn2)ccc1C`: the glutamate EC50 in presence of 30 uM compound (lower = stronger potentiation) is 0.33 µM.
